Consider two molecules from patent publication US20110288045A1, “WET GRANULATION OF TENOFOVIR, EMTRICITABINE AND EFAVIRENZ” (ULTIMORPHIX TECHNOLOGIES B.V., priority 2008, published 2011).

The conditions of series [1]: wet granulation of the three drugs (Efavirenz, Tenofovir DF, Emtricitabine) together; US2007099902A1, EP1890681; cited from earlier work.
Series [2] is described as follows: Stability testing at 33 weeks of wet granulated Truvada and Atripla combination formulations, by HPLC. The class given is physicochemical. As for the experimental part: Stability Testing at 33 Weeks
The stability of the Truvada and Atripla combination formulations after wet granulation was checked by HPLC after 33 weeks storage under 75% Relative Humidity (RH) and 40° C.
Two types of formulations were prepared for each combination, one containing the Tenofovir Disoproxil Fumarate and the other one containing the Tenofovir Disoproxil Hemifumarate co-crystal. In both combinations, water content of 30 and 40% was prepared.

Series [3] in a line: HPLC assay for degradation products after wet granulation. The class given is physicochemical. The note with it: for Impurity peaks of Tenofovir disoproxil at 26.57 and 36.0 min (HPLC): wet granulation with Emtricitabine (Table 1). As for the experimental part:
Analytical Methods: HPLC Assay for Degradation Product
Emtricitabine/Tenofovir disoproxil (Fumarate or Hemifumarate) granules are assayed by HPLC for Emtricitabine and Tenofovir disoproxil (Fumarate or Hemifumarate) using external references as described in US2007/0077295. The presence of degradation products are determined by area normalization. The identities of Emtricitabine and Tenofovir disoproxil (Fumarate or Hemifumarate) are confirmed by comparison of their retention times with those of the reference standards.
Approximately 6520 mg of Emtricitabine/Tenofovir disoproxil (Fumarate or Hemifumarate) granules was weighted into a 1 L volumetric flask. Added was 400 mL 25 mM phosphate buffer, pH 3 to the volumetric flask. Mixing was performed by stirring vigorously for about 75 minutes. 50:50 acetonitrile: methanol was added to the flask to approximately 2 cm below the 1 L mark. The solution was equilibrated to ambient temperature by mixing for 1 hour. The volume was diluted to 1 L with 50:50 acetonitrile: methanol and mixed well by stirring with a magnetic stirring bar. Using a 0.45 μm syringe filter with a syringe, approximately 10 mL for the next dilution was filtered. The first 2 mL of the filtrate was discarded. A class A pipette was used to transfer 5.0 mL of the filtrate into a 50 mL volumetric flask and dilute the to volume with sample solvent (40:30:30). […]
A composition comprising the ingredients and ratios as listed in table 1 are subjected to a standard wet granulation process with respectively 30% and 40% w/w water. The quality of the granulation was assessed visually. […]
A composition comprising the ingredients and ratios as listed in table 2 were subjected to a standard wet granulation process with respectively 30% and 40% w/w water. The quality of the granulation was assessed visually. […]
A composition comprising the ingredients and ratios as listed in Table 1 are subjected to a standard wet granulation process with respectively 30% and 40% w/w water. The quality of the granulation was assessed visually. […]

Entries after “also recorded” stand apart in the source; their conditions may differ. Where a name gives a salt, the structure may show the parent alone. Read-outs that look alike come from different tables or passages of the source.

Take `CC(C)OC(=O)OCOP(=O)(CO[C@H](C)Cn1cnc2c(N)ncnc21)OCOC(=O)OC(C)C` [Tenofovir disoproxil fumarate]: the “Stability of Tenofovir DF” value in series [1] is reported as “degraded rapidly; also recorded: unstable”. The “Degradation of Tenofovir disoproxil salt (HPLC chromatogram)” value in series [2] was “to a large extent”.

As to Tenofovir disoproxil hemifumarate, the “Chemical stability during wet granulation (overall conclusion)” value in series [3] (Truvada (table 1) and Atripla (table 2) formulations, 30% and 40% w/w water) is on record as “stable”. Besides, the “Impurity peaks of Tenofovir disoproxil at 26.57 and 36.0 min (HPLC)” value in series [3] (30% w/w high pure water) and in series [3] (40% w/w high pure water) was “not observed” throughout. Further, the “Degradation of Tenofovir disoproxil salt (HPLC chromatogram)” value is “no degradation” in series [2] (Atripla sample prepared with 30% water, 33 weeks, 75% RH, 40° C.); “less degradation” in series [2] (Atripla sample prepared with 40% water, 33 weeks, 75% RH, 40° C.); “small degradation” in series [2] (Truvada sample prepared with 30% water, 33 weeks, 75% RH, 40° C.); “small degradation” in series [2] (Truvada sample prepared with 40% water, 33 weeks, 75% RH, 40° C.).
